Data taken from PubChem BioAssay AID330 (DTP/NCI, 2004).
Several values for one entry are separate records, joined by “and”; a condition that tells them apart may be missing. Equal values may be shown once. Inconclusive results and toxic doses are left out. How the source made its calls: active means survival T/C of 150% or more; inactive means T/C below 125% in these data.

System: P388 leukemia ip, CD2F1 mice, survival T/C
Assay: NCI In Vivo Anticancer Drug Screen. Data for tumor model P388 Leukemia (intraperitoneal) in CD2F1 (CDF1) mice
Conditions: endpoint: median survival time, higher = longer survival
Summary of the method: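 Mice carrying the transplanted tumor received test compound or vehicle. Survival was recorded in each group, and the value is the treated-group measurement divided by that of the vehicle-treated control group.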

[1] = dose: 50.0 mg/kg/injection, schedule: Q01DX005 (ip), vehicle: saline with Tween-80
[2] = dose: 100.0 mg/kg/injection, schedule: Q01DX005 (ip), vehicle: saline with Tween-80
[3] = dose: 200.0 mg/kg/injection, schedule: Q01DX005 (ip), vehicle: saline with Tween-80
[4] = dose: 25.0 mg/kg/injection, schedule: Q01DX005 (ip), vehicle: saline with Tween-80
[5] = dose: 50.0 mg/kg/injection, schedule: Q01DX005 (ip), vehicle: Klucel (hydroxypropylcellulose) (HPC)
[6] = dose: 100.0 mg/kg/injection, schedule: Q01DX005 (ip), vehicle: Klucel (hydroxypropylcellulose) (HPC)
[7] = dose: 50.0 mg/kg/injection, schedule: Q01DX009 (ip), vehicle: saline with Tween-80
[8] = dose: 100.0 mg/kg/injection, schedule: Q01DX009 (ip), vehicle: saline with Tween-80
[9] = dose: 200.0 mg/kg/injection, schedule: Q01DX005 (ip), vehicle: Klucel (hydroxypropylcellulose) (HPC)
[10] = dose: 25.0 mg/kg/injection, schedule: Q01DX005 (ip), vehicle: saline
[11] = dose: 50.0 mg/kg/injection, schedule: Q01DX005 (ip), vehicle: saline
[12] = dose: 100.0 mg/kg/injection, schedule: Q01DX005 (ip), vehicle: saline
[13] = dose: 60.0 mg/kg/injection, schedule: Q01DX005 (ip), vehicle: saline
[14] = dose: 120.0 mg/kg/injection, schedule: Q01DX005 (ip), vehicle: saline
[15] = dose: 240.0 mg/kg/injection, schedule: Q01DX005 (ip), vehicle: saline

Measured: T/C

O=C(NCC1OC(n2cnc3c(=O)[nH]cnc32)C(O)C1O)c1ccc(S(=O)(=O)F)cc1 (stereo not drawn)
inactive: dose: 50.0 mg/kg/injection, schedule: Q01DX001 (ip), vehicle: saline with Tween-80 99 % of control | dose: 100.0 mg/kg/injection, schedule: Q01DX001 (ip), vehicle: saline with Tween-80 96 % of control | dose: 200.0 mg/kg/injection, schedule: Q01DX001 (ip), vehicle: saline with Tween-80 108 % of control

Cc1ccc2nc(N/N=C(\c3ccccc3)c3ccccn3)cc(C)c2c1
inactive: [1] 100 % of control | [2] 112 % of control

CCOC1(C)OC2OC(COC(C)=O)C(OC(C)=O)C(OC(N)=O)C2O1 (stereo not drawn)
inactive: [1] 97 % of control | [2] 92 % of control | [3] 92 % of control

Cc1cc2cc3ccc(Cl)nn3c2nn1
inactive: [4] 104 % of control | [1] 99 % of control | [2] 95 % of control | [3] 96 % of control

COc1ccc(S(N)(=O)=O)cc1C(=O)NCCN1CCN(c2cccc(C(F)(F)F)c2)CC1
inactive: [5] 99 % of control | [6] 95 % of control

Cc1ccccc1CS
inactive: [7] 113 % of control | [8] 113 % of control | dose: 200.0 mg/kg/injection, schedule: Q01DX009 (ip), vehicle: saline with Tween-80 113 % of control

CCOC(=O)/C=C/c1ccc(C(=O)OCC)[nH]1
inactive: dose: 25.0 mg/kg/injection, schedule: Q01DX009 (ip), vehicle: Klucel (hydroxypropylcellulose) (HPC) 101 % of control | dose: 50.0 mg/kg/injection, schedule: Q01DX009 (ip), vehicle: Klucel (hydroxypropylcellulose) (HPC) 100 % of control | dose: 100.0 mg/kg/injection, schedule: Q01DX009 (ip), vehicle: Klucel (hydroxypropylcellulose) (HPC) 107 % of control | dose: 200.0 mg/kg/injection, schedule: Q01DX009 (ip), vehicle: Klucel (hydroxypropylcellulose) (HPC) 97 % of control

CC(=O)OCC1=C(c2ccccc2)S(=O)(=O)c2ccccc2C1=O
inactive: dose: 12.5 mg/kg/injection, schedule: Q01DX005 (ip), vehicle: saline with Tween-80 108 % of control | [4] 106 % of control

O=C(Nc1ccccc1C(=O)Nc1ccccc1C(=O)O)c1cccnc1
inactive: dose: 100.0 mg/kg/injection, schedule: Q04DX002 (ip), vehicle: saline with Tween-80 109 % of control | dose: 200.0 mg/kg/injection, schedule: Q04DX002 (ip), vehicle: saline with Tween-80 100 % of control

COC(=O)CC1C=CCC2C(=O)C=C(OC)C(=O)C12C (stereo not drawn)
inactive: [5] 103 % of control | [6] 100 % of control | [9] 100 % of control

N#CN=CN1CCC(Cc2ccccc2)CC1
inactive: [7] 101 % of control | [8] 101 % of control

CCOC(=O)CCC(NC(=O)c1ccc(CBr)cc1)C(=O)OCC (stereo not drawn)
inactive: dose: 12.5 mg/kg/injection, schedule: Q01DX009 (ip), vehicle: distilled water + Tween-80 102 % of control | dose: 25.0 mg/kg/injection, schedule: Q01DX009 (ip), vehicle: distilled water + Tween-80 111 % of control | dose: 50.0 mg/kg/injection, schedule: Q01DX009 (ip), vehicle: distilled water + Tween-80 107 % of control | dose: 100.0 mg/kg/injection, schedule: Q01DX009 (ip), vehicle: distilled water + Tween-80 100 % of control

COc1ccccc1N1C(=S)N(c2cccc(Cl)c2Cl)C(=O)C(N=Nc2ccc(Br)cc2)C1O (stereo not drawn)
inactive: dose: 100.0 mg/kg/injection, schedule: Q01DX001 (ip), vehicle: Klucel (hydroxypropylcellulose) (HPC) 100 % of control | dose: 200.0 mg/kg/injection, schedule: Q01DX001 (ip), vehicle: Klucel (hydroxypropylcellulose) (HPC) 99 % of control | dose: 400.0 mg/kg/injection, schedule: Q01DX001 (ip), vehicle: Klucel (hydroxypropylcellulose) (HPC) 96 % of control

CC(=O)Nc1n[nH]c(C)n1
inactive: [10] 97 % of control | [11] 106 % of control | [12] 97 % of control

C1=C(CC2=C[P+](c3ccccc3)(c3ccccc3)C=C(c3ccccc3)O2)OC(c2ccccc2)=C[P+]1(c1ccccc1)c1ccccc1
inactive: dose: 0.75 mg/kg/injection, schedule: Q01DX005 (ip), vehicle: saline with Tween-80 115 % of control | dose: 3.0 mg/kg/injection, schedule: Q01DX005 (ip), vehicle: saline 124 % of control

Cc1ncc(COP(=O)(O)O)c(C2NC(C(=O)O)CS2)c1O (stereo not drawn)
inactive: [11] 115 % of control | [13] 92 % of control | [12] 107 % of control | [14] 94 % of control | dose: 200.0 mg/kg/injection, schedule: Q01DX005 (ip), vehicle: saline 113 % of control | [15] 91 % of control

CN1C(=O)N(C)C2(C(=O)c3cccc4cccc2c34)C1=O (stereo not drawn)
inactive: dose: 50.0 mg/kg/injection, schedule: Q01DX009 (ip), vehicle: distilled water + alcohol 100 % of control | dose: 100.0 mg/kg/injection, schedule: Q01DX009 (ip), vehicle: distilled water + alcohol 94 % of control | dose: 200.0 mg/kg/injection, schedule: Q01DX009 (ip), vehicle: distilled water + alcohol 100 % of control

COC(=O)C1=C/C=C\CN(CCC2OCC(CBr)O2)/C=C\1C(=O)OC (stereo not drawn)
inactive: dose: 100.0 mg/kg/injection, schedule: Q01DX001 (ip), vehicle: alcohol 95 % of control | dose: 200.0 mg/kg/injection, schedule: Q01DX001 (ip), vehicle: alcohol 100 % of control | dose: 400.0 mg/kg/injection, schedule: Q01DX001 (ip), vehicle: alcohol 100 % of control

Cn1c(N)c(C(=O)/C=C/c2ccccc2)c(=O)[nH]c1=O
inactive: [5] 95 % of control | [6] 88 % of control | [9] 88 % of control

CC1(C)CCCC2(C)C1CCC13OC1(C=O)C(C=O)=CCC23 (stereo not drawn)
inactive: dose: 1.25 mg/kg/injection, schedule: Q01DX005 (ip), vehicle: saline + alcohol 99 % of control | dose: 2.5 mg/kg/injection, schedule: Q01DX005 (ip), vehicle: saline + alcohol 98 % of control | dose: 5.0 mg/kg/injection, schedule: Q01DX005 (ip), vehicle: saline + alcohol 99 % of control | dose: 10.0 mg/kg/injection, schedule: Q01DX005 (ip), vehicle: saline + alcohol 99 % of control | dose: 20.0 mg/kg/injection, schedule: Q01DX005 (ip), vehicle: saline + alcohol 104 % of control

O=C(NCCO)Nc1ccc2c(c1)OCCOCCOCCOCCO2
inactive: dose: 30.0 mg/kg/injection, schedule: Q01DX005 (ip), vehicle: saline 98 % of control | [13] 101 % of control | [14] 99 % of control | [15] 99 % of control

O=C(N/N=C\c1ccccc1O)c1cccc2ccccc12
inactive: [5] 99 % of control | [6] 99 % of control | [9] 102 % of control

CCOC(=O)C1=C(C(C)=O)C(c2ccc(OC)c(OC)c2)C(C(C)=O)=C(C(=O)OCC)N1
inactive: [13] 102 % of control | [14] 100 % of control

O=C(CC(O)(C(F)(F)F)C(F)(F)F)CC(O)(C(F)(F)F)C(F)(F)F
inactive: dose: 0.5 mg/kg/injection, schedule: Q04DX003 (ip), vehicle: saline + alcohol 95 % of control | dose: 1.0 mg/kg/injection, schedule: Q04DX003 (ip), vehicle: saline + alcohol 100 % of control | dose: 1.25 mg/kg/injection, schedule: Q04DX003 (ip), vehicle: saline with Tween-80 100 % of control and 95 % of control | dose: 2.0 mg/kg/injection, schedule: Q04DX003 (ip), vehicle: saline + alcohol 90 % of control | dose: 2.5 mg/kg/injection, schedule: Q04DX003 (ip), vehicle: saline with Tween-80 100 % of control | dose: 5.0 mg/kg/injection, schedule: Q04DX003 (ip), vehicle: saline with Tween-80 100 % of control and 91 % of control

CC(=O)Nc1ccsc1
inactive: [10] 102 % of control | [11] 104 % of control | [12] 109 % of control

CN1CCN=C1c1ccc(NC(=O)c2ccc(C(=O)Nc3ccc(C4=NCCN4C)cc3)c([N+](=O)[O-])c2)cc1
inactive: dose: 0.78 mg/kg/injection, schedule: Q01DX005 (ip), vehicle: saline with Tween-80 110 % of control and 113 % of control | dose: 1.56 mg/kg/injection, schedule: Q01DX005 (ip), vehicle: saline with Tween-80 112 % of control and 114 % of control | dose: 3.13 mg/kg/injection, schedule: Q01DX005 (ip), vehicle: saline with Tween-80 124 % of control

CCOP(=S)(OCC)Oc1cc(C)nc(C(C)C)n1
inactive: [7] 112 % of control | [8] 111 % of control

CCCN(CCC)c1ccc(C(=O)Oc2c(C)cccc2OC)cc1
inactive: [5] 93 % of control | [6] 102 % of control | [9] 90 % of control
